Results from patent publication US12180187B2, “1-phenyl-5-azinylpyrazolyl-3-oxyalkyl acids and their use for controlling unwanted plant growth” (BAYER AKTIENGESELLSCHAFT, priority 2019, dated 2024).

Assays:
DIGSA [1] = test: Pre-emergence action against DIGSA, 1280 g/ha; type: in vivo, Digitaria sanguinalis; settings: visual scoring after about 3 weeks vs untreated controls, 100% = plants have died, 0% = like control plants
In short: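 Compound applied as WP or EC in aqueous spray (0.5% additive, 600 L/ha) to the surface of sandy loam covering freshly sown seeds. After about 3 weeks under good greenhouse conditions, damage is given as visual percentage, 100% meaning plant death.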

LOLRI = test: Pre-emergence action at 320 g/ha against LOLRI; type: in vivo, Lolium rigidum; settings: visual scoring after about 3 weeks vs untreated controls; for pest or weed control at 320 g/ha: Lolium rigidum, 504 h
In short: (§1)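 Visual scoring in percent against untreated controls, about 3 weeks after treatment, where 100% means dead plants and 0% means no difference. Compounds were applied as aqueous suspension or emulsion (WP or EC, plus 0.5% additive) onto soil covering freshly sown seeds, at 600 l/ha water.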

MATIN [2] = test: Pre-emergence action at 320 g/ha against MATIN; type: in vivo, Tripleurospermum inodorum (Matricaria inodora); settings: visual scoring after about 3 weeks vs untreated controls; for pest or weed control at 320 g/ha: Tripleurospermum inodorum, 504 h
In short: as §1

AMARE [3] = test: Post-emergence action against AMARE, 1.28 kg/ha; type: in vivo, Amaranthus retroflexus; settings: dosage 1280 g/ha, visual rating about 3 weeks after treatment vs untreated controls (100% = plants died)
In short: (§2)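 Weeds grown in sandy loam in a greenhouse were sprayed at the one-leaf stage, 2–3 weeks after sowing, with WP or EC formulations in water containing 0.5% additive at 600 L/ha. About 3 weeks later, damage was scored visually versus untreated controls (0% = like control, 100% = dead).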

VERPE = test: Post-emergence action against VERPE, 1.28 kg/ha; type: in vivo, Veronica persica; settings: dosage 1280 g/ha, visual rating about 3 weeks after treatment vs untreated controls (100% = plants died); for pest or weed control at 1280 g/ha: Veronica persica, 504 h
In short: as §2

ALOMY [4] = test: Post-emergence action against ALOMY, 320 g/ha; type: in vivo, Alopecurus myosuroides; settings: dosage 320 g/ha, visual rating about 3 weeks after treatment vs untreated controls (100% = plants died)
In short: (§3)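 Weeds were sown in sandy loam, grown in a greenhouse and sprayed at the one-leaf stage, 2 to 3 weeks after sowing, with WP or EC formulations as aqueous suspension or emulsion plus 0.5% additive at 600 l/ha water. Activity was rated visually after about 3 weeks against untreated controls (100% = plants dead, 0% = like control).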

DIGSA [5] = test: Post-emergence action at 320 g/ha against DIGSA; type: in vivo, Digitaria sanguinalis; settings: dosage 320 g/ha, visual rating about 3 weeks after treatment vs untreated controls (100% = plants died); for pest or weed control at 320 g/ha: Digitaria sanguinalis, 504 h
In short: as §3

AMARE [6] = test: Post-emergence action at 320 g/ha against AMARE; type: in vivo, Amaranthus retroflexus; settings: visual rating about 3 weeks after treatment vs untreated controls; for pest or weed control at 320 g/ha: Amaranthus retroflexus, 504 h
In short: as §3

SETVI = test: Post-emergence action at 320 g/ha against SETVI; type: in vivo, Setaria viridis; settings: visual rating about 3 weeks after treatment vs untreated controls
In short: as §3

PHBPU = test: Post-emergence action at 320 g/ha against PHBPU; type: in vivo; settings: visual rating about 3 weeks after treatment vs untreated controls
In short: as §3

POLCO = test: Post-emergence action at 320 g/ha against POLCO; type: in vivo, Fallopia convolvulus (Polygonum convolvulus); settings: visual rating about 3 weeks after treatment vs untreated controls; for pest or weed control at 320 g/ha: Fallopia convolvulus, 504 h
In short: as §3

ECHCG = test: Post-emergence action against ECHCG, 1.28 kg/ha; type: in vivo, Echinochloa crus-galli; settings: dosage 1280 g/ha, visual rating about 3 weeks after treatment vs untreated controls; for pest or weed control at 1280 g/ha: Echinochloa crus-galli, 504 h
In short: as §2

ABUTH = test: Post-emergence action against ABUTH, 1.28 kg/ha; type: in vivo, Abutilon theophrasti; settings: dosage 1280 g/ha, visual rating about 3 weeks after treatment vs untreated controls (100% = plants died)
In short: as §2

MATIN [7] = test: Post-emergence action against MATIN, 1.28 kg/ha; type: in vivo, Tripleurospermum inodorum (Matricaria inodora); settings: dosage 1280 g/ha, visual rating about 3 weeks after treatment vs untreated controls (100% = plants died)
In short: as §2

STEME = test: Post-emergence action against STEME, 1.28 kg/ha; type: in vivo, Stellaria media; settings: dosage 1280 g/ha, visual rating about 3 weeks after treatment vs untreated controls (100% = plants died)
In short: as §2

ALOMY [8] = test: Post-emergence action against ALOMY, 1.28 kg/ha; type: in vivo, Alopecurus myosuroides; settings: dosage 1280 g/ha, visual rating about 3 weeks after treatment vs untreated controls
In short: as §2

Row | Structure (SMILES) | Pre-emergence action against DIGSA (DIGSA [1]) [%] | pest or weed control at 320 g/ha (LOLRI) [%] | pest or weed control at 320 g/ha (MATIN [2]) [%] | Post-emergence action against AMARE (AMARE [3]) [%] | pest or weed control at 1280 g/ha (VERPE) [%] | Post-emergence action against ALOMY (ALOMY [4]) [%] | pest or weed control at 320 g/ha (DIGSA [5]) [%] | pest or weed control at 320 g/ha (AMARE [6]) [%] | Post-emergence action against SETVI in % (SETVI) [%] | Post-emergence action against PHBPU in % (PHBPU) [%] | pest or weed control at 320 g/ha (POLCO) [%] | pest or weed control at 1280 g/ha (ECHCG) [%] | Post-emergence action against ABUTH (ABUTH) [%] | Post-emergence action against MATIN (MATIN [7]) [%] | Post-emergence action against STEME (STEME) [%] | Post-emergence action against ALOMY (ALOMY [8]) [%] | Pre-emergence action against LOLRI in % (LOLRI) [%] | Pre-emergence action against MATIN in % (MATIN [2]) [%] | Post-emergence action against ECHCG (ECHCG) [%] | Post-emergence action against VERPE (VERPE) [%] | also measured
1 | C=CCNC(=O)COc1nn(-c2ccccc2F)c(-c2ccc(F)nc2)c1Br [Example X-001, N-Allyl-2-{[4-bromo-1-(2-fluorophenyl)-5-(6-fluoropyridin-3-yl)-1H-pyrazol-3-yl]oxy}acetamide] | 100 | 100 | 90 | 90 | 100 | 90 | 80 | 80 | 90 | 80 | 80 | – | – | – | – | – | – | – | – | – | –
2 | COC(=O)COc1nn(-c2ccccc2F)c(-c2cncnc2)c1Br [VI-004, Methyl {[4-bromo-1-(2-fluorophenyl)-5-(pyrimidin-5-yl)-1H-pyrazol-3-yl]oxy}acetate] | – | 90 | 100 | 100 | 90 | – | 90 | 90 | 80 | 80 | 80 | 90 | 90 | 100 | 90 | – | – | – | – | – | –
3 | O=C(O)COc1nn(-c2ccccc2F)c(-c2cncnc2)c1Br [VI-007, {[4-Bromo-1-(2-fluorophenyl)-5-(pyrimidin-5-yl)-1H-pyrazol-3-yl]oxy}acetic Acid] | 100 | 100 | 100 | – | 90 | – | 80 | 80 | – | 90 | 80 | 100 | – | 90 | 100 | 90 | – | – | – | – | –
4 | COC(=O)[C@@H](C)Oc1nn(-c2ccccc2F)c(-c2cncnc2)c1Br [VI-011, Methyl (2R)-2-{[4-bromo-1-(2-fluorophenyl)-5-(pyrimidin-5-yl)-1H-pyrazol-3-yl]oxy}propanoate] | 100 | 100 | 90 | – | – | 90 | 90 | 80 | 90 | – | 80 | 100 | – | – | 100 | 100 | – | – | – | – | –
5 | O=C(O)COc1nn(-c2ccccc2F)c(-c2ccc(F)nc2)c1Br [VII-003, {[4-Bromo-1-(2-fluorophenyl)-5-(6-fluoropyridin-3-yl)-1H-pyrazol-3-yl]oxy}acetic acid] | 100 | 100 | 90 | 100 | 90 | 80 | 90 | 90 | – | 90 | 90 | 90 | – | 100 | 100 | 90 | – | – | – | – | –
6 | CCOC(=O)COc1nn(-c2ccc(F)cc2F)c(-c2ccc(F)nc2)c1Cl [VII-016] | – | – | – | 90 | – | 90 | – | – | 80 | 90 | – | – | 90 | 100 | 100 | – | 100 | 80 | 90 | 90 | Post-emergence action against AMARE in % (AMARE [6]): 90%; Post-emergence action against POLCO in % (POLCO): 90%
7 | COC(=O)COc1nn(-c2ccccc2)c(-c2ccc(F)nc2)c1Br [VII-018] | 100 | – | – | – | – | 90 | – | – | 80 | 90 | – | – | 90 | 90 | 100 | 100 | 100 | 90 | 90 | 90 | Post-emergence action against AMARE in % (AMARE [6]): 90%; Post-emergence action against POLCO in % (POLCO): 90%
8 | COC(=O)C(C)Oc1nn(-c2ccccc2)c(-c2ccc(F)nc2)c1Cl (centres unmarked) [VII-023, Methyl 2-{[4-chloro-5-(6-fluoropyridin-3-yl)-1-phenyl-1H-pyrazol-3-yl]oxy}propanoate] | 90 | 100 | 90 | – | 100 | 90 | 90 | 90 | – | 90 | 90 | 90 | – | 90 | 100 | – | – | – | – | – | –
9 | COC(=O)C(C)Oc1nn(-c2ccccc2)c(-c2ccc(F)nc2)c1Br (centres unmarked) [VII-026] | 100 | – | – | 90 | – | 100 | – | – | 90 | – | – | – | 90 | 90 | 100 | 100 | 80 | 90 | 90 | 100 | Post-emergence action at 320 g/ha against DIGSA in % (DIGSA [5]): 90%; Post-emergence action against AMARE in % (AMARE [6]): 90%; Post-emergence action against POLCO in % (POLCO): 90%
10 | COC(=O)COc1nn(-c2ccccc2F)c(-c2ccc(F)nc2)c1F [VII-040] | 100 | – | – | 90 | – | 100 | – | – | 100 | 90 | – | – | 90 | 90 | 100 | 100 | 100 | 100 | 100 | 100 | Post-emergence action against AMARE in % (AMARE [6]): 90%; Post-emergence action against POLCO in % (POLCO): 90%
11 | O=C(O)COc1nn(-c2ccccc2F)c(-c2ccnc(F)c2)c1Br [VIII-004] | – | – | – | 90 | – | 90 | – | – | 80 | 90 | – | – | – | 90 | 100 | – | 90 | 90 | 90 | 90 | Post-emergence action at 320 g/ha against DIGSA in % (DIGSA [5]): 90%; Post-emergence action against AMARE in % (AMARE [6]): 90%; Post-emergence action against POLCO in % (POLCO): 80%
